In the NIST ThermoML archive (doi:10.1016/j.jct.2014.01.012):

Experiment: refractive index (Na D-line) (dimensionless); xn = mol fraction of the nth substance listed
Details: 101 kPa, Liquid

CCCCCCn1cc[n+](C)c1.F[P-](F)(F)(F)(F)F [1-hexyl-3-methylimidazolium hexafluorophosphate] + CCCCOC(C)=O
refractive index, Standard Abbe refractometry
Details	293.15 K	298.15 K	303.15 K	308.15 K	313.15 K	318.15 K	323.15 K
x1 = 0.0956	1.40012	1.39835	1.39654	1.39469	1.39293	1.39102	1.38925
x1 = 0.1919	1.40555	1.40397	1.40209	1.40028	1.39856	1.39677	1.39495
x1 = 0.273	1.40899	1.40746	1.40564	1.40392	1.40223	1.40049	1.39879
x1 = 0.3698	1.41222	1.41064	1.40899	1.40735	1.40568	1.40401	1.40239
x1 = 0.4639	1.41432	1.41299	1.41138	1.40987	1.40837	1.40682	1.40529
x1 = 0.5701	1.41616	1.41482	1.41349	1.41215	1.41074	1.40945	1.40808
x1 = 0.6787	1.41768	1.41633	1.41519	1.41385	1.41265	1.41139	1.41024
x1 = 0.7746	1.41841	1.41727	1.41623	1.41512	1.41392	1.41269	1.41151
x1 = 0.8707	1.41937	1.41819	1.41713	1.41606	1.41477	1.41373	1.41268
x1 = 0.9354	1.41972	1.41876	1.41773	1.41651	1.41522	1.41386	1.41261
x1 = 1	1.42064	1.41935	1.41806	1.41676	1.41547	1.41417	1.41288

CCCCCCn1cc[n+](C)c1.F[P-](F)(F)(F)(F)F [1-hexyl-3-methylimidazolium hexafluorophosphate] + CCOC(C)=O
refractive index
Details	293.15 K	298.15 K	303.15 K	308.15 K	313.15 K	318.15 K	323.15 K
x1 = 0.09053	1.38737	1.38598	1.38515	1.38415	1.38344	1.38227	1.38202
x1 = 0.1751	1.39825	1.39706	1.39611	1.39519	1.39414	1.39389	1.39323
x1 = 0.2748	1.40432	1.40351	1.402	1.40105	1.40023	1.39983	1.3989
x1 = 0.3638	1.40809	1.40694	1.40594	1.40487	1.40397	1.40319	1.40308
x1 = 0.4747	1.41069	1.40989	1.40899	1.40784	1.40699	1.40607	1.40548
x1 = 0.5959	1.41247	1.41194	1.41159	1.41107	1.40998	1.4091	1.4082
x1 = 0.6988	1.41456	1.41432	1.41357	1.41273	1.41182	1.41087	1.40995
x1 = 0.7782	1.41641	1.41609	1.41526	1.41451	1.41389	1.41215	1.41181
x1 = 0.8784	1.41817	1.41813	1.41735	1.41622	1.41498	1.41315	1.41252
x1 = 0.9562	1.42009	1.41886	1.41756	1.41629	1.41507	1.41377	1.41258
x1 = 1	1.42064	1.41935	1.41806	1.41676	1.41547	1.41417	1.41288
